From patent US6919299B2, “Synergistic herbicidal compositions” (Bayer CropScience GmbH, priority 2001, dated 2005)

What was measured:
Type in all cases: in vivo
[1] = test system: Galium aparine; test: Outdoor post-emergence herbicidal trial, GALAP; settings: Example B.I, outdoors
Procedure: (§1) Outdoors, crop plants were grown on plots of a size of from 5 to 10 m^2 on various soils and under various climatic conditions, and the natural presence of harmful plants and/or their seeds in the soil was utilized for the experiments. The treatment with the compositions according to the invention or the herbicides A and B applied individually was carried out after emergence of the harmful and the crop plants, in general at the 2- to 4-leaf stage. The active compounds or active compound combinations, formulated as WG, WP or EC, were applied by the post-emergence method. After 2 to 8 weeks, visual evaluation was carried out in comparison with an untreated comparative group. […] In addition, the herbicidal activities of the compositions according to the invention exceed the expected values according to Colby.
(§2) If the observed activity values of the mixtures already exceed the formal sum of the values for the trials with individual applications, they also exceed the expected value according to Colby which is calculated using the following formula (cf. S. R. Colby; in Weeds 15 (1967) pp. 20 to 22): E=A+B−(A×B/100)
(§3) The figures denote: • A, B=Activity of components A and B in percent, at a dosage of a and b gram of ai/ha, respectively. • E=Expected value in % at a dosage of a+b gram of ai/ha.

[2] = test system: Papaver rhoeas; test: Outdoor post-emergence herbicidal trial, PAPRH; settings: Example B.I, outdoors
Procedure: as §1, §2, §3

[3] = test system: Brassica napus; test: Outdoor post-emergence herbicidal trial, BRAPP; settings: Example B.II, outdoors
Procedure: as §1, §2, §3

[4] = test system: Setaria faberi; test: Outdoor post-emergence herbicidal trial, SETFA; settings: Example B.II, outdoors
Procedure: as §1, §2, §3

[5] = test system: Abutilon theophrasti; test: Outdoor post-emergence herbicidal trial, ABUTH; settings: outdoors
Procedure: as §1, §2, §3

[6] = test system: Echinocloa crus galli; test: Outdoor post-emergence herbicidal trial, ECHCG; settings: outdoors
Procedure: as §1, §2, §3

[7] = test system: Matricaria spec; test: Outdoor post-emergence herbicidal trial, MATCH; settings: Example B.V, outdoors
Procedure: as §1, §2, §3

[8] = test system: Polygonum convolvulus; test: Outdoor post-emergence herbicidal trial, POLCO; settings: Example B.V, outdoors
Procedure: as §1, §2, §3

[9] = test system: Amaranthus retroflexus; test: Outdoor post-emergence herbicidal trial, AMARE; settings: Example B.VI, outdoors
Procedure: as §1, §2, §3

[10] = test system: Portulaca oleracea; test: Outdoor post-emergence herbicidal trial, POROL; settings: Example B.VI, outdoors
Procedure: as §1, §2, §3

[11] = test system: Digitaria sanguinalis; test: Outdoor post-emergence herbicidal trial, DIGSA; settings: Example B.VII, outdoors
Procedure: as §1, §2, §3

[12] = test system: Sorghum halepense; test: Outdoor post-emergence herbicidal trial, SORHA; settings: Example B.VII, outdoors
Procedure: as §1, §2, §3

[13] = Example B.III, B2.2 840 g ai/ha

CS(=O)(=O)c1ccc(C(=O)C2C(=O)CCCC2=O)c(Cl)c1COCC(F)(F)F [Component A, 2-[2-chloro-3-(2,2,2-trifluoroethoxymethyl)-4-methylsulfonylbenzoyl]cyclohexane-1,3-dione]
found (herbicidal activity) ([1]; A 75 g ai/ha): 50% | found (herbicidal activity) ([2]; A 75 g ai/ha): 0% | found (herbicidal activity) ([3]; A 100 g ai/ha): 68% | found (herbicidal activity) ([4]; A 100 g ai/ha): 65% | found (herbicidal activity) ([5]; Example B.III, A 100 g ai/ha): 75% | found (herbicidal activity) ([5]; Example B.IV, A 100 g ai/ha): 75% | found (herbicidal activity) ([6]; Example B.III, A 100 g ai/ha): 98% | found (herbicidal activity) ([6]; Example B.IV, A 100 g ai/ha): 98% | found (herbicidal activity) ([7]; A 38 g ai/ha): 45% | found (herbicidal activity) ([8]; A 38 g ai/ha): 50% | found (herbicidal activity) ([9]; A 75 g ai/ha): 90% | found (herbicidal activity) ([10]; A 75 g ai/ha): 50% | found (herbicidal activity) ([11]; A 75 g ai/ha): 46% | found (herbicidal activity) ([12]; A 75 g ai/ha): 50%

COc1cc(OC)nc(NC(=O)NS(=O)(=O)c2ncccc2C(=O)N(C)C)n1 [Component B1.9, nicosulfuron]
found (herbicidal activity) ([9]; B1.9 40 g ai/ha): 90% | found (herbicidal activity) ([10]; B1.9 40 g ai/ha): 0% | found (herbicidal activity) ([11]; B1.9 40 g ai/ha): 50% | found (herbicidal activity) ([12]; B1.9 40 g ai/ha): 62%

CCNc1nc(Cl)nc(NC(C)C)n1 [Component B2.2, atrazine]
found (herbicidal activity) ([1]; B2.2 200 g ai/ha): 30% | found (herbicidal activity) ([2]; B2.2 200 g ai/ha): 60% | found (herbicidal activity) ([3]; B2.2 840 g ai/ha): 0% | found (herbicidal activity) ([4]; B2.2 840 g ai/ha): 5% | found (herbicidal activity) [5, 13]: 20% | found (herbicidal activity) ([5]; Example B.IV, B2.2 840 g ai/ha): 20% | found (herbicidal activity) [6, 13]: 0% | found (herbicidal activity) ([6]; Example B.IV, B2.2 840 g ai/ha): 0%

N#Cc1cc(Br)c(O)c(Br)c1 [Component B2.3, bromoxynil]
found (herbicidal activity) ([7]; B2.3 100 g ai/ha): 55% | found (herbicidal activity) ([8]; B2.3 100 g ai/ha): 45%
